Test results as given in US4421767A, “Compounds and methods for treating depression” (priority 1982, dated 1983).
Like-named read-outs stand apart in the source and are kept apart here.

Tests used:
non-neuronal MAO = experiment: Ex vivo MAO activity after i.p. injection in rats, non-neuronal MAO; set-up: species or system rat; settings: AFMBA 100 mg/kg i.p., 18 hours
Method: (§1) Rats were injected with AFHBA (0.5 mg/kg, i.p.) alone or with AFHBA (0.5 mg/kg, i.p.) in combination with MFMD (2.0 mg/kg, i.p.) administered 30 minutes before AFHBA. Animals were killed 18 hours later and MAO activity (5-HT and phenethylamine as substrates) was determined in brain, heart, and liver. In the brain, AFHBA administered alone inhibited neuronal MAO by 72% and non-neuronal MAO by 37%.
(§2) III. Rats were injected with AFMBA (100 mg/kg, i.p.) and were killed 18 hours later. MAO activity was determined in the brain, heart, and liver using 5-HT and PEA.

neuronal MAO = experiment: Ex vivo MAO activity after i.p. injection in rats, neuronal MAO; set-up: species or system rat; settings: AFMBA 100 mg/kg i.p., 18 hours
Method: as §1, §2

depression = settings: literature; cited from earlier work
MAO [1] = settings: literature; cited from earlier work
MAO-B = settings: literature; cited from earlier work
[2] = system: brain noradrenaline and 5-HT concentrations; experiment: Brain amine concentration after 5 days oral MAO inhibitor in rats (Table I); type: in vivo, rat; settings: for Brain Amine Concentration, 5-HT / Brain Amine Concentration, Noradrenaline: 5 days
Method: On the 6th day, rats were anaesthetized and heart rate and blood pressure responses to tyramine (0.3-50 mg/kg) administered intraduodenally (i.d.) were determined. Additionally, monoamines and MAO activity were determined in various tissues including brain.

[3] = system: heart rate and blood pressure responses to tyramine; experiment: Potentiation of tyramine response after 5 days oral MAO inhibitor in rats (Table I); type: in vivo, rat; settings: for Tyramine Potentiation: 5 days, tyramine i.d.
Method: (A) Rats were gavaged daily for 5 days with saline or 2-amino-4-fluoro-3-(3'-hydroxyphenyl)-3-butenoic acid (AFHBA) at dosages of 15.6, 62.5, 250, or 1000 μg/kg or with clorgyline at dosages of 1250 or 5000 μg/kg. On the 6th day, rats were anaesthetized and heart rate and blood pressure responses to tyramine (0.3-50 mg/kg) administered intraduodenally (i.d.) were determined. Additionally, monoamines and MAO activity were determined in various tissues including brain.

MAO-A = settings: literature; cited from earlier work
MAO [4] = experiment: In vitro MAO inhibition; type: biochemical
cheese effect = settings: low dosages where preferential inhibition of MAO-B occurs; cited from earlier work
[5] = system: heart rate and blood pressure responses to tyramine; type: in vivo, rat; settings: for Tyramine Potentiation: 5 days, tyramine i.d.
Method: (§3) (B) Rats were gavaged with saline or carbidopa given at dosage of 10 or 100 mg/kg. Thirty minutes later, the rats were gavaged with saline or AFHBA given at a dosage of 62.5 μg/kg. This treatment was repeated daily for 5 days. On the 6th day, the rats were anaesthetized and heart rate and blood pressure responses to tyramine (0.3-50 mg/kg, i.d.) were determined. Additionally, monoamines and MAO activity were determined in various tissues, including brain.

[6] = system: brain noradrenaline and 5-HT concentrations; experiment: Brain amine concentration, AFHBA with or without carbidopa pretreatment in rats (Table II); type: in vivo, rat; settings: for Brain Amine Concentration, 5-HT / Brain Amine Concentration, Noradrenaline: 5 days
Method: as §3

MAO [7] = experiment: Ex vivo MAO activity in rats, protection by extracerebral AADC inhibitor; set-up: species or system rat; settings: carbidopa 50 mg/kg i.p. with AFHBA, compared with MFMD 2.0 mg/kg i.p., heart
Method: as §1
MAO activity was determined in the brain using 5-HT and phenethylamine (PEA) as substrates.

[8] = Clorgyline 1250 μg/kg daily p.o.
[9] = Clorgyline 5000 μg/kg daily p.o.
[10] = carbidopa alone 10000 μg/kg daily p.o.
[11] = carbidopa alone 100000 μg/kg daily p.o.

Structure (SMILES): COc1ccc(C(=CF)C(N)C(=O)O)cc1O (centres unmarked) [AFMBA, 2-amino-4-fluoro-3-(3'-hydroxy-4-methoxyphenyl)-3-butenoic acid]
- % Inhibition of MAO, Non-neuronal (non-neuronal MAO; brain): 40%
- % Inhibition of MAO, Non-neuronal (non-neuronal MAO; heart): 46%
- % Inhibition of MAO, Non-neuronal (non-neuronal MAO; liver): 11%
- % Inhibition of MAO, Neuronal (neuronal MAO; brain): 16%
- % Inhibition of MAO, Neuronal (neuronal MAO; heart): 18%
- % Inhibition of MAO, Neuronal (neuronal MAO; liver): 2%

Structure (SMILES): C#CCN(C)Cc1ccccc1 [pargyline]
- clinical antidepressant effect (depression): clinically effective antidepressant agents
- selectivity at lower versus higher dosages (MAO [1]): selective inhibitors at lower dosages, but are not selective inhibitors at higher dosages
- preferential inhibition of MAO-B (MAO-B): preferentially inhibited

Structure (SMILES): C#CCN(C)CCCOc1ccc(Cl)cc1Cl [Clorgyline, reference compound]
- Brain Amine Concentration, 5-HT [2, 8]: 620 ± 34 ng/g
- Brain Amine Concentration, Noradrenaline [2, 8]: 351 ± 11 ng/g
- Brain Amine Concentration, 5-HT [2, 9]: 1027 ± 82 ng/g
- Brain Amine Concentration, Noradrenaline [2, 9]: 329 ± 19 ng/g
- brain noradrenaline and 5-HT concentrations (dose relation) ([2]; subacute treatment): dose-related increases in brain noradrenaline and 5-HT concentrations
- clinical antidepressant effect (depression): clinically effective antidepressant agents
- Tyramine Potentiation ([3]; Clorgyline 1250 μg/kg daily p.o., some potentiation at lowest doses of tyramine (footnote c)): 1.0
- Tyramine Potentiation [3, 9]: 5.0
- potentiation of the tyramine response (dose relation) ([3]; subacute treatment): potentiation of the tyramine response
- selectivity at lower versus higher dosages (MAO [1]): selective inhibitors at lower dosages, but are not selective inhibitors at higher dosages
- preferential inhibition of MAO-A (MAO-A): preferentially inhibited

Structure (SMILES): N[C@@H]1C[C@H]1c1ccccc1 (relative stereo) [tranylcypromine]
- preference of action upon MAO (MAO [1]): not preferential in their action upon MAO

Structure (SMILES): NCC(=CF)c1cccc(O)c1 [2-(3'-hydroxy)phenyl-3-fluoroallylamine]
- MAO inhibition type (MAO [4]): time-dependent irreversible inhibitor
- IC50 (MAO [4]; unit inferred): ~1 nM

Structure (SMILES): Cc1cc(C(=O)NNCc2ccccc2)no1 [isocarboxazid]
- preference of action upon MAO (MAO [1]): not preferential in their action upon MAO

Structure (SMILES): NNCCc1ccccc1 [phenelzine]
- preference of action upon MAO (MAO [1]): not preferential in their action upon MAO

Structure (SMILES): C#CCN(C)[C@H](C)Cc1ccccc1 [L-deprenyl]
- clinical antidepressant effect (depression): clinically effective antidepressant agents
- cheese effect (cheese effect): not observed

Structure (SMILES): C[C@@](Cc1ccc(O)c(O)c1)(NN)C(=O)O [Carbidopa, reference compound]
- effect on tyramine response ([5]; carbidopa alone 10 mg/kg): no effect on tyramine response
- Tyramine Potentiation [5, 10]: 1.1
- Tyramine Potentiation [5, 11]: 2.3
- effect on tyramine response ([5]; carbidopa alone 100 mg/kg): potentiated the tyramine response
- elevation of brain monoamines on coadministration with AFHBA ([6]; carbidopa 10 mg/kg + AFHBA 62.5 μg/kg): significantly enhanced the elevation of brain monoamines
- effectiveness of AFHBA to raise brain monoamines on coadministration ([6]; carbidopa 100 mg/kg + AFHBA): reduced the effectiveness of AFHBA to raise brain monoamines
- Brain Amine Concentration, 5-HT [6, 10]: 599 ± 31 ng/g
- Brain Amine Concentration, Noradrenaline [6, 10]: 366 ± 3 ng/g
- Brain Amine Concentration, 5-HT [6, 11]: 443 ± 19 ng/g
- Brain Amine Concentration, Noradrenaline [6, 11]: 271 ± 19 ng/g
- protective effect against inhibition of MAO in the heart (MAO [7]): same protective effect against inhibition of MAO in the heart as MFMD
